Measurements taken from PMC5529658, “Antiproliferative and Antibacterial Activities of Cirsium scabrum from Tunisia” (Evidence-based Complementary and Alternative Medicine : eCAM, 2017).
Each block holds one compound with its values, some of them ahead of it.

What was measured:
Type in all cases: cell-based
[1] = test system: Staphylococcus epidermidis T19A1; test: Antimicrobial assay (MIC, agar dilution); details: amoxicillin
Procedure: (§1) The antimicrobial activity of crude extract and partitions was evaluated against 36 pathogenic microorganisms (22 Gram-positive bacteria, 13 Gram-negative bacteria, and 1 yeast) according to Mahamodo et al.. The 36 microorganisms were grown overnight at 37°C on sloping Mueller-Hinton (MH) agar medium. Briefly, the bacteria were diluted with Ringer's Cysteine (RC) solution to obtain 10^6 bacteria/ml. […] Inocula of 10^4 colony forming units (CFU) were spotted ultimately with a multipoint inoculator (Steers Replicator).

[2] = test system: Enterococcus faecalis T37B1; test: Antimicrobial assay (MIC, agar dilution); details: amoxicillin
Procedure: as §1

[3] = test system: Streptococcus agalactiae T53A4; test: Antimicrobial assay (MIC, agar dilution); details: amoxicillin
Procedure: as §1

[4] = test system: Staphylococcus aureus 8143; test: Antimicrobial assay (MIC, agar dilution); details: amoxicillin
Procedure: as §1

[5] = test system: Staphylococcus lugdunensis T47B2; test: Antimicrobial assay (MIC, agar dilution); details: amoxicillin
Procedure: as §1

[6] = test system: Staphylococcus capitis T21A3; test: Antimicrobial assay (MIC, agar dilution); details: amoxicillin
Procedure: as §1

[7] = test system: Staphylococcus aureus 8142; test: Antimicrobial assay (MIC, agar dilution); details: amoxicillin
Procedure: as §1

[8] = test system: Staphylococcus aureus T11; test: Antimicrobial assay (MIC, agar dilution); details: amoxicillin
Procedure: as §1

[9] = test system: Dermabacter hominis T47A7; test: Antimicrobial assay (MIC, agar dilution); details: amoxicillin
Procedure: as §1

[10] = test system: Corynebacterium striatum T40A3; test: Antimicrobial assay (MIC, agar dilution); details: amoxicillin
Procedure: as §1

[11] = test system: Staphylococcus pettenkoferi T33; test: Antimicrobial assay (MIC, agar dilution); details: amoxicillin
Procedure: as §1

[12] = test system: Staphylococcus lugdunensis T36A1; test: Antimicrobial assay (MIC, agar dilution); details: amoxicillin
Procedure: as §1

[13] = test system: Staphylococcus pettenkoferi T282; test: Antimicrobial assay (MIC, agar dilution); details: amoxicillin
Procedure: as §1

[14] = test system: Staphylococcus aureus T26A4; test: Antimicrobial assay (MIC, agar dilution); details: amoxicillin
Procedure: as §1

[15] = test system: Pseudomonas aeruginosa T41; test: Antimicrobial assay (MIC, agar dilution); details: amoxicillin
Procedure: as §1

[16] = test system: Staphylococcus aureus T2510; test: Antimicrobial assay (MIC, agar dilution); details: amoxicillin
Procedure: as §1

Escherichia coli T20A2 = test: Antimicrobial assay (MIC, agar dilution); details: amoxicillin
Procedure: as §1

[17] = test system: Staphylococcus saprophyticus 8237; test: Antimicrobial assay (MIC, agar dilution); details: amoxicillin
Procedure: as §1

[18] = test system: Staphylococcus capitis T29A2; test: Antimicrobial assay (MIC, agar dilution); details: amoxicillin
Procedure: as §1

[19] = test system: Enterococcus faecalis T47A16; test: Antimicrobial assay (MIC, agar dilution); details: amoxicillin
Procedure: as §1

[20] = test system: Staphylococcus aureus T21; test: Antimicrobial assay (MIC, agar dilution); details: amoxicillin
Procedure: as §1

[21] = test system: Corynebacterium striatum T46C1; test: Antimicrobial assay (MIC, agar dilution); details: amoxicillin
Procedure: as §1

[22] = test system: Dermabacter hominis T49B5; test: Antimicrobial assay (MIC, agar dilution); details: amoxicillin
Procedure: as §1

[23] = test system: Staphylococcus aureus T281; test: Antimicrobial assay (MIC, agar dilution); details: amoxicillin
Procedure: as §1

[24] = test system: Staphylococcus epidermidis T151; test: Antimicrobial assay (MIC, agar dilution); details: amoxicillin
Procedure: as §1

[25] = test system: Staphylococcus aureus T306; test: Antimicrobial assay (MIC, agar dilution); details: amoxicillin
Procedure: as §1

[26] = test system: Pseudomonas aeruginosa ATCC9027; test: Antimicrobial assay (MIC, agar dilution); details: amoxicillin
Procedure: as §1

[27] = test system: Staphylococcus aureus T61; test: Antimicrobial assay (MIC, agar dilution); details: amoxicillin
Procedure: as §1

[28] = test system: Staphylococcus aureus 8148; test: Antimicrobial assay (MIC, agar dilution); details: amoxicillin
Procedure: as §1

[29] = test system: J774 (macrophage-like cell line, derived from BALB/c murine reticulum cell sarcoma); test: MTT cytotoxicity assay on J774; details: for IC50: Mus musculus, J774, MTT, 72 h, mean ± SEM, six determinations; for SI (IC50 WI38/IC50 J774): selectivity index WI38 vs J774
Procedure: (§2) Cell Culture. The cytotoxicity was evaluated on two cell lines: J774 (macrophage-like cell line, derived from BALB/c murine reticulum cell sarcoma) and WI38 (human normal fibroblast-like lung cell line), using the tetrazolium salt MTT [3-(4,5-dimethylthiazol-2-yl)-2,5-diphenyltetrazolium bromide (Sigma)] colorimetric method, as described by Bero et al.. J774 cells were cultivated in a humidified atmosphere with 5% CO2 at 37°C in RPMI 1640 medium (Life Technologies, Paisley, UK) containing 2 mM L-glutamine supplemented with 10% heat-inactivated fetal bovine serum (Life Technologies) and penicillin-streptomycin (100 UI/ml). WI38 cells were cultivated in a humidified atmosphere with 5% CO2 at 37°C in DMEM medium (Life Technologies) containing 4 mM L-glutamine, 1 mM sodium pyruvate supplemented with 10% heat-inactivated fetal bovine serum (Life Technologies), and penicillin-streptomycin (100 UI/ml).
Cytotoxicity Assay. Briefly, WI38 or J774 cells were seeded in 96-well plates (5000 cells/well/180 µl medium or 2.8 × 10^4 cells/ml). After 24 h, cells were treated with 20 μl of crude extract and partitions solutions in a fixed concentration of 50 µg/ml to calculate cell viability percentage. […] After 72 h, the medium was replaced by 100 μl of a 10% MTT solution (3 mg/ml in PBS) in medium. After 45 min, the medium was removed again and 100 μl of DMSO was added to solubilize formed formazan crystals. Absorbance was recorded at 570 nm and 620 nm. Each sample was tested in eight serial […] dilutions in 96-well microtiter plates, at least three wells per concentration in duplicate. Camptothecin (Sigma) was used as positive control (concentration range: 25–0.00032 µg/ml).
(§3) Cell viability% = [AT/ANT] × 100, with A: absorbance, NT: control cells, and T: treated cells.

[30] = test system: WI38 (human normal fibroblast-like lung cell line); test: MTT cytotoxicity assay on WI38; details: WI-38, 72 h, mean ± SEM, six determinations
Procedure: as §2
Cytotoxicity Assay. Briefly, WI38 or J774 cells were seeded in 96-well plates (5000 cells/well/180 µl medium or 2.8 × 10^4 cells/ml). After 24 h, cells were treated with 20 μl of crude extract and partitions solutions in a fixed concentration of 50 µg/ml to calculate cell viability percentage. […] Absorbance was recorded at 570 nm and 620 nm. […]
as §3

Reference antibiotics MIC values [1]: S (Amox (amoxicillin), S: ≤4)
Reference antibiotics MIC values [2]: S (Amox (amoxicillin), S: ≤4)
Reference antibiotics MIC values [3]: R (R: >16)
Reference antibiotics MIC values [4]: S (Amox (amoxicillin), S: ≤4)
Reference antibiotics MIC values [5]: S (Amox (amoxicillin), S: ≤4)
Reference antibiotics MIC values [6]: S (Amox (amoxicillin), S: ≤4)
Reference antibiotics MIC values [7]: R (R: >16)
Reference antibiotics MIC values [8]: R (R: >16)
Reference antibiotics MIC values [9]: R (R: >16)
Reference antibiotics MIC values [10]: R (R: >16)
Reference antibiotics MIC values [11]: R (R: >16)
Reference antibiotics MIC values [12]: S (Amox (amoxicillin), S: ≤4)
Reference antibiotics MIC values [13]: S (Amox (amoxicillin), S: ≤4)
Reference antibiotics MIC values [14]: R (R: >16)
Reference antibiotics MIC values [15]: R (R: >16)
Reference antibiotics MIC values [16]: R (R: >16)
Reference antibiotics MIC values (Escherichia coli T20A2): S (Amox (amoxicillin), S: ≤4)
Reference antibiotics MIC values [17]: S (Amox (amoxicillin), S: ≤4)
Reference antibiotics MIC values [18]: S (Amox (amoxicillin), S: ≤4)
Reference antibiotics MIC values [19]: R (R: >16)
Reference antibiotics MIC values [20]: R (R: >16)
Reference antibiotics MIC values [21]: S (Amox (amoxicillin), S: ≤4)
Reference antibiotics MIC values [22]: S (Amox (amoxicillin), S: ≤4)
Reference antibiotics MIC values [23]: R (R: >16)
Reference antibiotics MIC values [24]: R (R: >16)
Reference antibiotics MIC values [25]: S (Amox (amoxicillin), S: ≤4)
Reference antibiotics MIC values [26]: R (R: >16)
Reference antibiotics MIC values [27]: R (R: >16)
Reference antibiotics MIC values [28]: R (R: >16)
SMILES: CC1(C)S[C@@H]2[C@H](NC(=O)[C@H](N)c3ccc(O)cc3)C(=O)N2[C@H]1C(=O)O [Amox, amoxicillin]

SMILES: CC[C@@]1(O)C(=O)OCc2c1cc1n(c2=O)Cc2cc3ccccc3nc2-1 [Camptothecin]
IC50 [29]: 0.011 ± 0.002 µg/mL
SI (IC50 WI38/IC50 J774) [29]: 15^∗∗∗
IC50 [30]: 0.175 ± 0.029 µg/mL

SMILES: C=C(C)[C@@H]1CC[C@]2(C)CC[C@]3(C)[C@H](CC[C@@H]4[C@@]5(C)CC[C@H](O)C(C)(C)[C@@H]5CC[C@]43C)[C@@H]12 [Compound 1, lupeol]
IC50 [29]: 12.6 ± 0.23 µg/mL
SI (IC50 WI38/IC50 J774) [29]: 1.5^∗∗∗
SI (IC50 WI38/IC50 J774) ([29]; listed as Lupeol): 1.5
IC50 [30]: 19.2 ± 0.55 µg/mL
